Measured values from PubChem BioAssay (NCI).
Several values for one entry are separate records, joined by “and”; a condition that tells them apart may be missing. Identical values can stand only once.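 Each compound was tested at five concentrations against cells in 96-well plates for 48 hours. GI50 = concentration required for 50% inhibition of growth. TGI is the concentration that stops growth completely.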

Tests used:
Assay in all cases: NCI tumour cell line growth inhibition, 48 h
DLD-1 colon = system: DLD-1 colon
DMS 114 small cell lung = system: DMS 114 small cell lung
DMS 273 small cell lung = system: DMS 273 small cell lung
HOP-18 NSCLC = system: HOP-18 NSCLC
KM20L2 colon = system: KM20L2 colon
LXFL 529 NSCLC = system: LXFL 529 NSCLC
SNB-78 CNS = system: SNB-78 CNS
MDA-N = system: MDA-N
RXF-631 renal = system: RXF-631 renal
P388 leukemia = system: P388 leukemia
P388/ADR leukemia = system: P388/ADR leukemia
SN12K1 renal = system: SN12K1 renal

Row | SMILES | TGI (DLD-1 colon) | TGI (DMS 114 small cell lung) | TGI (DMS 273 small cell lung) | TGI (HOP-18 NSCLC) | TGI (KM20L2 colon) | TGI (LXFL 529 NSCLC) | TGI (SNB-78 CNS) | TGI (MDA-N) | TGI (RXF-631 renal) | also measured
1 | COC(=O)C(C(=O)C(N)=O)c1csc(-n2nc(-c3ccccc3)cc2-c2ccccc2)n1 (stereo not drawn) | > 31.6 µM | 25.2 µM | > 31.6 µM | > 31.6 µM | > 31.6 µM | > 31.6 µM | > 31.6 µM |  |  | 
2 | [CH3][Sn]1([CH3])[O]CC(COc2cc(Cl)c(Cl)cc2Cl)[O]1 (stereo not drawn) | > 100 µM | > 100 µM | > 100 µM | > 100 µM | > 100 µM | > 100 µM | > 100 µM |  |  | GI50 (DLD-1 colon): 54.5 µM; GI50 (DMS 114 small cell lung): 50.1 µM; GI50 (DMS 273 small cell lung): > 100 µM; GI50 (HOP-18 NSCLC): 75 µM; GI50 (KM20L2 colon): > 100 µM; GI50 (LXFL 529 NSCLC): 41.2 µM; GI50 (SNB-78 CNS): 49.6 µM
3 | COc1cc(-c2cc(=O)c3c(O)c(OC)c(OC)c(OC)c3o2)cc(OC)c1OC |  |  |  |  |  |  |  | > 100 µM |  | 
4 | N#C/C(=C\c1ccc2[nH]ccc2c1)C(=O)c1ccc(O)c(O)c1 | > 100 µM | > 100 µM | > 100 µM | > 100 µM | > 100 µM | > 100 µM | > 100 µM | > 100 µM |  | 
5 | NNC(=O)C(O)C(O)C(=O)NN (stereo not drawn) |  |  |  |  |  |  |  | > 100 µM |  | 
6 | CC(=O)NC(CCCN(Cc1ccccc1)C(=O)N(C)N=O)C(=O)NCc1ccccc1 (stereo not drawn) | > 100 µM | > 100 µM | > 100 µM |  | > 100 µM | > 100 µM | > 100 µM |  | > 100 µM | 
7 | CC(C(N)=O)N(C)C(=O)c1cnc2ccccc2c1 (stereo not drawn) |  |  |  |  |  |  |  | > 100 µM |  | 
8 | Cc1ccc2nc(NC(=O)C(=O)CC(=O)c3cccc4ccccc34)sc2c1 | > 100 µM |  | > 100 µM | > 100 µM | > 100 µM | > 100 µM | > 100 µM |  |  | 
9 | Cc1noc(/N=C2\C=C(Nc3onc(C)c3C)C(=O)c3ccccc32)c1C | > 100 µM | > 100 µM | > 100 µM | > 100 µM | > 100 µM | > 100 µM | > 100 µM |  | > 100 µM | 
10 | CC(=O)OC(=O)O/C=C\CCl | > 100 µM | > 100 µM | > 100 µM | > 100 µM | > 100 µM | > 100 µM | > 100 µM |  | > 100 µM | 
11 | COC(=O)C(=O)C(C(=O)C(=O)Nc1cc(Cl)c(Cl)cc1Cl)c1nc2ccc([N+](=O)[O-])cc2[nH]c1=O (stereo not drawn) |  | > 100 µM | > 100 µM | 95.2 µM | > 100 µM | > 100 µM | > 100 µM |  | > 100 µM | 
12 | Cc1cc(Br)cc(C)c1NC(=O)C(=O)Nn1c(=S)[nH]c2ccccc2c1=O |  |  |  |  |  |  |  | > 100 µM |  | 
13 | CCc1cc(Cc2ccc(C)c(NC(=O)C(=O)C3C(=O)NC(=O)NC3=O)c2CC)cc(C)c1NC(=O)C(=O)C1C(=O)NC(=O)NC1=O | > 100 µM | > 100 µM | > 100 µM |  | > 100 µM | > 100 µM | > 100 µM |  | > 100 µM | 
14 | CC1=CC(=O)NP(=O)(C23CC4CC(CC(C4)C2)C3)N1 (stereo not drawn) | > 100 µM |  | > 100 µM | > 100 µM | > 100 µM | > 100 µM | > 100 µM |  | > 100 µM | 
15 | CC(N1CCOCC1)C(O)(c1ccccc1)c1ccccn1 (stereo not drawn) |  |  |  |  |  |  |  | > 100 µM |  | 
16 | O=CCCCC(Sc1ccccc1)Sc1ccccc1 | 31.6 µM | 49 µM | 33.9 µM |  | > 100 µM | 25.6 µM | 37.7 µM |  | 40 µM | 
17 | COc1ccc2c(c1)c1c3n2CCNN=C3CCC1 | > 100 µM | > 100 µM | > 100 µM | > 100 µM | > 100 µM | > 100 µM | > 94.3 µM |  | > 100 µM | 
18 | CCCCCCCCCCCCCCCCCC(=O)NCC(COP(=O)(O)O)OCC (stereo not drawn) | > 100 µM | > 100 µM | > 100 µM |  |  | > 100 µM | 83.3 µM |  | 77.2 µM | 
19 | COc1ccc(C)cc1C1CCC(=O)O1 (stereo not drawn) | > 100 µM | > 100 µM | > 100 µM | > 100 µM | > 100 µM | > 100 µM | > 100 µM |  |  | 
20 | C/C(CC(=O)Nc1cccc([N+](=O)[O-])c1)=N\NC(=O)CC#N | > 100 µM | > 100 µM | > 100 µM |  | > 100 µM | > 100 µM | > 100 µM |  | > 100 µM | 
21 | O=S(=O)(O)SCCNCCCCCC1CCCCC1 |  |  |  |  |  |  |  | 26.1 µM |  | 

Row | SMILES | TGI (DLD-1 colon) | TGI (DMS 114 small cell lung) | TGI (DMS 273 small cell lung) | TGI (HOP-18 NSCLC) | TGI (KM20L2 colon) | TGI (LXFL 529 NSCLC) | TGI (SNB-78 CNS) | TGI (MDA-N) | TGI (RXF-631 renal) | also measured
22 | O=C(O)CCc1nc(-c2ccccc2-n2cccc2)no1 |  |  |  |  |  |  |  | > 100 µM |  | 
23 | CC(=O)c1c2c(cc3c1CC1(C3)Cc3cc4c(c(C(=O)O)c3C1)CCC4)CCC2 (stereo not drawn) | > 100 µM | > 100 µM | > 100 µM | > 100 µM |  | > 100 µM | > 100 µM |  |  | 
24 | CCCOC(=O)C1C2CCC(O2)C1C(=O)O (stereo not drawn) |  |  |  |  |  |  |  | > 100 µM |  | 
25 | O=C1CCC(=O)c2sccc2N1 | > 100 µM | > 100 µM | > 100 µM | > 100 µM | > 100 µM | > 100 µM | > 100 µM |  |  | 
26 | Nc1ccn(C2OC(C(OC3OC(CO)C(O)C(N)C3O)C(O)C(O)C(O)C(O)CO)C(N)C(O)C2O)c(=O)n1 (stereo not drawn) |  |  |  |  |  |  |  | > 100 µM |  | 
27 | O=C(/C=C/C1C(=O)NC(=O)NC1=O)CC(=O)C(=O)Nc1cc(Cl)c(Cl)cc1Cl | > 100 µM | > 100 µM | > 100 µM | > 100 µM | > 100 µM | > 100 µM | > 100 µM |  |  | 
28 | CNC(c1ccncc1)C(NC)c1ccncc1 (stereo not drawn) |  |  |  |  |  |  |  | > 100 µM |  | 
29 | O=C1C=Cc2ncccc2C1=O | 34.2 µM | 33.6 µM | 30.9 µM | > 64.7 µM | > 63.2 µM | 30.2 µM | > 66.5 µM |  | 39.5 µM | 
30 | CC(=O)[C-](C(C)=O)c1ccccc1.CC(=O)[C-](C(C)=O)c1ccccc1.CC(=O)[C-](C(C)=O)c1ccccc1.[Cl-].[Zr+4] |  |  |  |  | > 100 µM |  |  |  |  | GI50 (KM20L2 colon): > 100 µM
31 | CC(/C=N/N=C(N)N)=N\N=C(N)N | 2500 µM | 171 µM | 650 µM | 2060 µM | 411 µM |  | 147 µM | 354 µM |  | GI50 (DMS 114 small cell lung): 95.4 µM; GI50 (KM20L2 colon): 47.6 µM; GI50 (MDA-N): 26.8 µM; TGI (P388 leukemia): 39.8 µM; TGI (P388/ADR leukemia): 352 µM; TGI (SN12K1 renal): 30.1 µM
32 | N#CC(C(=O)CCCC(=O)Nc1ccc(Cl)cc1Cl)c1ccc(Cl)cc1 (stereo not drawn) | > 100 µM |  | > 100 µM | > 100 µM | > 100 µM | > 100 µM | > 100 µM |  | > 100 µM | 
33 | O=c1[nH]cc(C(F)(C(F)(F)F)C(F)(F)F)c(=O)[nH]1 | > 100 µM | > 100 µM | > 100 µM | > 100 µM | > 100 µM | > 100 µM | > 100 µM |  | > 100 µM | 
34 | Cc1c2ccncc2c(C)c2c1[nH]c1ccc(Cl)cc12 | 8.14 µM and 4.89 µM | 6.1 µM and 13 µM | 5.75 µM | 18 µM | 9.55 µM | 14 µM | 22.5 µM and 20.4 µM |  |  | GI50 (DLD-1 colon): 1.67 µM; GI50 (DMS 114 small cell lung): 2.6 µM; GI50 (KM20L2 colon): 3.06 µM; TGI (P388 leukemia): 3.91 µM; TGI (P388/ADR leukemia): 10.2 µM; TGI (SN12K1 renal): 7.81 µM; GI50 (SNB-78 CNS): 3.07 µM
35 | C#CCOCn1cnc2ncnc(N)c21 | > 100 µM | > 100 µM | > 100 µM | > 100 µM |  |  | > 100 µM |  |  | 
36 | S=c1c2ccccc2c(=S)n2n1CC=CC2 | > 100 µM | > 100 µM | > 100 µM | > 100 µM | > 100 µM | > 100 µM | > 100 µM |  | > 100 µM | 
37 | c1ccc(-c2ccnc3c2ccc2c(-c4ccccc4)ccnc23)cc1 | 15.3 µM | 12.7 µM | 9.5 µM | 11.4 µM | 16.5 µM | 11.5 µM | 18 µM |  | 6.19 µM | 
38 | CC(C)N1C(C)[C@@H](c2ccccc2)O[P@]1(=O)CC1=CCCCC1 (stereo partly drawn) | > 100 µM | > 100 µM |  | > 100 µM | > 100 µM | > 100 µM |  |  |  | 
39 | CC(C)(C)Sc1nnc(SC(C)(C)C)c2c(=O)[nH]nc(SC(C)(C)C)c12 | 22.8 µM | 15.5 µM | 21.3 µM |  | 22.1 µM | 23.1 µM | 25.8 µM |  | 20.5 µM | 
40 | Cc1ccc(S(=O)(=O)NC(CO)C(=O)O)cc1 (stereo not drawn) |  |  |  |  |  |  |  | > 100 µM |  | 
41 | C/C(=N\NS(=O)(=O)c1ccc([N+](=O)[O-])cc1)c1ccc[n+]([O-])n1 | 20.3 µM | 4.75 µM | 2.74 µM | 68.2 µM | 19.5 µM | 6.7 µM | 51.8 µM |  |  | 
42 | COc1ccc(NC(=O)C2C(=O)N(c3ccc(OC)cc3)C(=O)/C2=N\NC(N)=O)cc1 (stereo not drawn) |  | > 100 µM | > 100 µM | 70.7 µM | > 100 µM | > 100 µM | > 100 µM |  |  | 
